Test results published in patent US10849959B2, “Formulation, dosage form and method of reducing knee pain” (ORTHOTROPHIX, INC., priority 2017, dated 2020).
Read-outs that look alike come from different tables or passages of the source.

Assays:
[1] = system: subjects with bilateral patello-femoral knee osteoarthritis; experiment: Randomized double-blind placebo-controlled clinical study of TPX-100, efficacy by KOOS/WOMAC patient reported outcomes; type: in vivo, human; conditions: for Severity of pain going up or down stairs, treated vs placebo-treated knee (in words): p=0.004; for Pain alleviation in other activities or statuses of KOOS pain: activities other than going up or down stairs (and bending knee fully), any time point; for Knee functions, KOOS ADL (Function of Daily Living) and WOMAC function, treated vs placebo-treated knees: both 6 and 12 months after treatment, FIG. 12
Procedure: For this activity, the peptide of SEQ ID No. 1 was tested for its clinical safety and efficacy on a condition involving cartilage damage in a Phase 2 randomized double-blind controlled clinical trial with mild to severe knee osteoarthritis (OA) patients. See EXAMPLES.
The KOOS ADL (Function of Daily Living) consists of 17 questions asking degree of difficulty in functioning each knee during 17 different activities in daily living. Those 17 activities are broadly ranged from light to heavy duties. With regard to each activity, difficulty of each knee function is scored in 0-4 range where 0 as no difficulty and 4 as the most difficulty. The sum of the scores range from 0 to 68 (4×17), which is then converted to a 0-100 scale is KOOS ADL score. WOMAC function consists of the same questions with same scoring, except the total score range is not converted to 0-100 but remains 0-68.
The KOOS pain domain consists of 9 questions and each question is scored in 0-4 range. The sum of the scores, 0-36 (4×9), which is converted to a 0-100 scale to generate a KOOS pain score. While the first of the 9 questions asks for the frequency of knee pain, the other 8 questions ask for severity of knee pain during different activities or positions, where 0 is “never” experiencing pain and 4 is “always” experiencing pain. These 8 activities range from positions with little to no motion such as “at night while in bed” to those with high joint loading such as “going up or down stairs” (See FIG. 2). WOMAC pain consists of the same questions with the same scoring, except that the total score is not converted to a 100-point scale but remains in the range 0-36.
MRIs of both knees were evaluated by a central reader to determine the ICRS grade (gICRS) of each knee. If the cartilage of patello-femoral compartment in both knees fell within ICRS grades 1-3, or 4 with only focal defects, no defects greater than 1 cm, and all other inclusion criteria were met, with none of the exclusion criteria, the subject was registered. The randomization center randomized each subject to either Right knee active or Left knee active, with the active knee to receive TPX-100 and the contralateral knee to receive identical placebo.
For enrolled subjects, there was within-subject randomization, such that one knee received active drug injections, and the contralateral knee received identical placebo injections. Using subjects as their own control permits reduction of confounders such as weight, activity level, pain threshold, and uncharacterized genetic susceptibilities to OA progression. As two knees within a person form a matched set, the effects of individual-level confounders that are difficult to quantify (e.g. level of activity, genetic and epigenetic factors, pain threshold) are eliminated, increasing the power of the study to detect a treatment effect if one is present.
All KOOS subscale scores were analyzed. The primary analysis was carried out using a two-sided paired t-test at the 5% level of significance. The outcome variable was the difference between the change of the score of each subscale of KOOS from baseline in the treated knee (“Index Knee”) and the change from baseline in the placebo-treated knee (“Control Knee”).
Ninety-three (93) subjects who received 200 mg per dose of TPX-100 in one knee and placebo in contralateral knee were analyzed for efficacy.

[2] = system: subjects with bilateral patello-femoral knee osteoarthritis
Procedure: Eighteen (18) orthopedic, rheumatologic and family practice centers in the U.S. participated in the study.
A Safety Review Committee (SRC) evaluated safety in each dosing cohort. The SRC assessed safety and dose-limiting toxicities, if evident, and determined whether the next higher dosing regimen might be enrolled. Part A were completed and analyzed with regard to safety prior to dose selection and initiation of Part B.
Six (6) subjects were enrolled in 20, 50, and 100 mg cohorts, respectively, and nine (9) subjects were enrolled in 200 mg cohort. Each dosing cohort was reviewed based on safety analysis of dose groups in Part A.
No other doses of drug or placebo were administered. All subjects visited their respective clinical sites at 3, 6, and 12 months after the first dosing for their safety and efficacy assessments.
On the first dosing day, the randomized subjects were assessed for their general health conditions by physical examinations and vital signs. Further, they completed self-reported assessments of the conditions of each of their knees as well as systemic health by the questionnaires of KOOS (Knee injury and Osteoarthritis Outcome Score), which includes subscales of WOMAC (Western Ontario and McMaster Universities Osteoarthritis Index). KOOS is a questionnaire that assesses knee-specific activities of daily living, sports and recreation function, knee-related quality of life, symptom, and knee pain. […] After these assessments, subjects received one intra-articular injection in each knee, with each injection prepared from the vial(s) marked for that knee. One knee received TPX-100, and the contralateral knee received placebo, in a triple-blind fashion (subject, site, and sponsor all blinded to treatment assignment). Subjects were monitored for adverse events during the injections and for a few hours after the injections. Vital signs were also monitored after the injections.
On the 7th, 14th, and 21st days after the first dosing, subjects received the second, third, and fourth (last) dosing of the same study materials, respectively, as well as safety and adverse event assessments in the same way as the first dosing day.
Subjects returned to their respective study sites at 3, 6 and 12 months after the first dosing day for follow-up evaluations. In addition, the study sites monitored the subject's condition through telephone contact 9 months after the first dosing day. During the 3, 6, and 12 months post-treatment follow-up on-site visits, subjects were evaluated by physical examination, vital signs, serum chemistry, as well as KOOS. Adverse events and concomitant medications were also recorded.

[3] = stated as known, no test described, cited from earlier work
[4] = system: standardized large cartilage defects; conditions: four weekly intra-articular injections, cited from earlier work
[5] = 12 months, 200 mg, listed as peptide of SEQ ID No. 1
[6] = 200 mg, listed as peptide of SEQ ID No. 1

TDLQERGDNDISPFSGDGQPFKD [TPX-100]
Function improvement across the 17 activities of KOOS ADL, treated vs placebo-treated knee ([1]; 200 mg): observed in most of the 17 light to heavy activities | Frequency of overall knee pain, Index vs Control knees (in words) ([1]; 12 months, 200 mg): significantly improved (p=0.04) | Severity of pain bending knee fully, treated vs placebo-treated knee (in words) ([1]; 12 months, 200 mg): trend (p<0.09) of improvement | Frequency of overall knee pain, Index vs Control knees (in words) [1, 5]: significantly reduced | Severity of pain bending knee fully, treated vs placebo-treated knee (in words) [1, 5]: near statistically significant pain alleviation | Severity of pain going up or down stairs, treated vs placebo-treated knee (in words) ([1]; 12 months, 200 mg): highly significant | Severity of pain going up or down stairs, treated vs placebo-treated knee (in words) [1, 5]: statistically significant improvement | Score Change from Baseline to 12 Months, Index: How often do you experience RIGHT/LEFT knee pain? ([1]; KOOS Pain Question 1 (frequency, score 0-4), TPX-100 treated knees, 200 mg intra-articular, 4 weekly doses, 12 months): −0.62 | Difference = [Index score change] − [Control score change]: How often do you experience RIGHT/LEFT knee pain? ([1]; KOOS Pain Question 1, TPX-100 vs placebo treated knees, baseline to 12 months, 200 mg): −0.26 | Score Change from Baseline to 12 Months, Index: Twisting/pivoting on your knee ([1]; KOOS Pain Question 2 (severity, score 0-4), TPX-100 treated knees, 200 mg intra-articular, 4 weekly doses, 12 months): −0.19 | Difference = [Index score change] − [Control score change]: Twisting/pivoting on your knee ([1]; KOOS Pain Question 2, TPX-100 vs placebo treated knees, baseline to 12 months, 200 mg): −0.09 | Score Change from Baseline to 12 Months, Index: Straightening knee fully moving ([1]; KOOS Pain Question 3 (severity, score 0-4), TPX-100 treated knees, 200 mg intra-articular, 4 weekly doses, 12 months): −0.30 | Difference = [Index score change] − [Control score change]: Straightening knee fully moving ([1]; KOOS Pain Question 3, TPX-100 vs placebo treated knees, baseline to 12 months, 200 mg): −0.12 | Score Change from Baseline to 12 Months, Index: Bending knee fully ([1]; KOOS Pain Question 4 (severity, score 0-4), TPX-100 treated knees, 200 mg intra-articular, 4 weekly doses, 12 months): −0.45 | Difference = [Index score change] − [Control score change]: Bending knee fully ([1]; KOOS Pain Question 4, TPX-100 vs placebo treated knees, baseline to 12 months, 200 mg): −0.24 | Score Change from Baseline to 12 Months, Index: Walking on flat surface ([1]; KOOS Pain Question 5 (severity, score 0-4), TPX-100 treated knees, 200 mg intra-articular, 4 weekly doses, 12 months): −0.25 | Difference = [Index score change] − [Control score change]: Walking on flat surface ([1]; KOOS Pain Question 5, TPX-100 vs placebo treated knees, baseline to 12 months, 200 mg): −0.12 | Score Change from Baseline to 12 Months, Index: Going up or down stairs ([1]; KOOS Pain Question 6 (severity, score 0-4), TPX-100 treated knees, 200 mg intra-articular, 4 weekly doses, 12 months): −0.51 | Difference = [Index score change] − [Control score change]: Going up or down stairs ([1]; KOOS Pain Question 6, TPX-100 vs placebo treated knees, baseline to 12 months, 200 mg): −0.33 | Score Change from Baseline to 12 Months, Index: At night while in bed ([1]; KOOS Pain Question 7 (severity, score 0-4), TPX-100 treated knees, 200 mg intra-articular, 4 weekly doses, 12 months): −0.19 | Difference = [Index score change] − [Control score change]: At night while in bed ([1]; KOOS Pain Question 7, TPX-100 vs placebo treated knees, baseline to 12 months, 200 mg): 0.00 | Difference = [Index score change] − [Control score change]: Sitting or lying ([1]; KOOS Pain Question 8, TPX-100 vs placebo treated knees, baseline to 12 months, 200 mg): −0.02 | Score Change from Baseline to 12 Months, Index: Standing upright ([1]; KOOS Pain Question 9 (severity, score 0-4), TPX-100 treated knees, 200 mg intra-articular, 4 weekly doses, 12 months): −0.34 | Difference = [Index score change] − [Control score change]: Standing upright ([1]; KOOS Pain Question 9, TPX-100 vs placebo treated knees, baseline to 12 months, 200 mg): −0.16 | Pain alleviation in other activities or statuses of KOOS pain ([1]; 200 mg): did not show statistically significant improvements | Pain alleviation in other activities or statuses of KOOS pain [1, 6]: did not show pain alleviation with statistical significance or trend | KOOS Sports and Recreation subscale, Index vs Control knees ([1]; at 6 months, 200 mg): clinically meaningful and statistically significant improvement | KOOS knee related quality of life (QOL) subscale, Index vs Control knees ([1]; at 12 months, 200 mg): clinically meaningful and statistically significant improvement | Total KOOS pain subscale, Index vs Control knees ([1]; at 12 months, 200 mg): clinically meaningful and statistical trend (p<0.09) of improvement | Total KOOS pain subscale, Index vs Control knees ([1]; at 12 months, 200 mg, listed as peptide of SEQ ID No. 1): clinically meaningful improvement | Knee functions, KOOS ADL (Function of Daily Living) and WOMAC function, treated vs placebo-treated knees ([1]; 200 mg): clinically meaningful and statistically significant (p<0.05) improvement | Knee functions, KOOS ADL (Function of Daily Living) and WOMAC function, treated vs placebo-treated knees [1, 6]: clinically meaningful and highly statistically significant (p=0.008) improvement | Total KOOS pain score, treated vs placebo treated knees ([1]; until 6 months after the treatment, 200 mg): very similar | Dose-limiting toxicities ([2]; Part A, 20, 50, 100 and 200 mg per intra-articular injection, four weekly): no dose-limiting toxicities | Safety and tolerability of treatments ([2]; throughout the study period): safe and well tolerated | Severe adverse events related to drug treatment ([2]; throughout the study period): no severe adverse events likely or possibly related to the drug treatment | Severity of treatment-related adverse events ([2]; throughout the study period): mild or moderate, transient | Analgesic or anti-inflammatory activities [3]: does not have any analgesic or anti-inflammatory activities | Analgesic or anti-inflammatory activities ([3]; listed as peptide of SEQ ID No. 1): does not have any anti-inflammatory or analgesic activities | Articular cartilage regeneration compared to vehicle control group ([4]; 125 mg and 250 mg, 6 months post-surgery): histologically-confirmed and statistically significant articular cartilage regeneration | Safety and tolerability in goats ([4]; freely ambulatory animals): safe and well-tolerated
